We go through 45 molecules from patent US10577373B2, “TYK2 inhibitors and uses thereof” (Nimbus Lakshmi, Inc., priority 2017, dated 2020).

Each structure is given as a SMILES string. Read-outs that look alike come from different tables or passages of the source.

In experiment [1] the test system is GM-CSF induced STAT5 phosphorylation mediated by the JAK2/JAK2 homdimeric complex. As to the kind of experiment: GM-CSF Induced pSTAT5 in Human PBMC.
Source text: Human PBMC are isolated from buffy coat and are stored frozen for assays as needed.
In experiment [2] the test system is IL-12 induced STAT4 phophorylation mediated by Tyk2/JAK2 (heterodimeric complex). As to the kind of experiment: IL-12 Induced pSTAT4 in Human PBMC. As to conditions: 1.7 ng/mL IL-12. In kind it is cell-based. The source says: The IL-12 Induced pSTAT4 assay evaluates the inhibition of IL-12 induced STAT4 phophorylation mediated by Tyk2/JAK2 (heterodimeric complex).

Setting [3] is: read-out: PBMC_GMCSF_pSTAT5 IC50, human PBMC, GM-CSF 5 ng/mL for 20 minutes, pSTAT5.
Setting [4] is: Homo sapiens, PBMC, 20 min, read-out: PBMC_GMCSF_pSTAT5 IC50, human PBMC, GM-CSF 5 ng/mL for 20 minutes, pSTAT5.

Regarding `[2H]C([2H])([2H])Oc1ncccc1Nc1cc(NC)n2ncc(C(=O)N[C@@H]3CC[C@@H]3O)c2n1` (stereo in doubt) [I-391, N-(2-hydroxycyclobutyl)-5-((2-(methoxy-d3)pyridin-3-yl)amino)-7-(methylamino)pyrazolo[1,5-a]pyrimidine-3-carboxamide], the results for the IC50 in experiment [1] (setting [3]) and in experiment [2] were over 50000 nM and under 100 nM, respectively.

In the case of `[2H]C([2H])([2H])Oc1ncccc1Nc1cc(NC)n2ncc(C(=O)N[C@H]3CC[C@H]3O)c2n1` (stereo in doubt) [I-399, N-((1 S,2R)-2-hydroxycyclobutyl)-5-((2-(methoxy-d3)pyridin-3-yl)amino)-7-(methylamino) pyrazolo[1,5-a]pyrimidine-3-carboxamide], the IC50 is over 12500 nM in experiment [1] (setting [3]) and under 100 nM in experiment [2].

`CNc1cc(-c2cn(C(C)C)c3ncccc23)nc2c(C(=O)N[C@@H]3CC[C@H]3O)cnn12` (stereo in doubt) [I-586, N-((1R,2R)-2-hydroxycyclobutyl)-5-(1-isopropyl-1H-pyrrolo[2,3-b]pyridin-3-yl)-7-(methylamino)pyrazolo[1,5-a]pyrimidine-3-carboxamide]: the IC50 in experiment [1] (setting [3]) is over 50000 nM; in experiment [2] it was under 100 nM.

`CNc1cc(Nc2cccn(-c3nc(C)co3)c2=O)nc2c(C(=O)N[C@@H]3CC[C@H]3O)cnn12` (stereo in doubt) [I-658, N-((1R,2R)-2-hydroxycyclobutyl)-7-(methylamino)-5-((1-(4-methyloxazol-2-yl)-2-oxo-1,2-dihydropyridin-3-yl)amino)pyrazolo[1,5-a]pyrimidine-3-carboxamide]: the IC50 in experiment [1] (setting [4]) was over 50000 nM; in experiment [2] it was under 100 nM.

Consider `CNc1cc(Nc2cccn(-c3ncc(C)s3)c2=O)nc2c(C(=O)N[C@H]3CC[C@@H]3O)cnn12` (stereo in doubt) [I-676, N-(2-hydroxycyclobutyl)-7-(methylamino)-5-((1-(5-methylthiazol-2-yl)-2-oxo-1,2-dihydropyridin-3-yl)amino)pyrazolo[1,5-a]pyrimidine-3-carboxamide], for which the IC50 in experiment [1] (setting [4]) was over 2500 nM; in experiment [2], under 100 nM.

In the case of `CNc1cc(Nc2cccn(-c3ccccn3)c2=O)nc2c(C(=O)N[C@@H]3CC[C@H]3OC)cnn12` (stereo in doubt) [I-816, N-(2-methoxycyclobutyl)-7-(methylamino)-5-((2-oxo-2H-[1,2′-bipyridin]-3-yl)amino)pyrazolo[1,5-a]pyrimidine-3-carboxamide], the IC50 in experiment [1] (setting [3]) was over 2500 nM; in experiment [2] it was under 100 nM.

As to `CNc1cc(Nc2cc(C)cc(C)c2)nc2c(C(N)=O)cnn12` [I-2, 5-((3,5-dimethylphenyl)amino)-7-(methylamino)pyrazolo[1,5-a]pyrimidine-3-carboxamide], the IC50 is over 50000 nM in experiment [1] (setting [4]) and under 100 nM in experiment [2].

With `CNc1cc(Nc2cc(F)ccc2F)nc2c(C(=O)NC3CC3)cnn12` [I-3], the results for the IC50 in experiment [1] (setting [4]) and in experiment [2] were over 12500 nM and under 100 nM, respectively.

With `CNc1cc(Nc2cccnc2OC)nc2c(C(=O)NC3CCC3)cnn12` [I-4], the IC50 is over 12500 nM in experiment [1] (setting [4]) and under 100 nM in experiment [2].

As for `CNc1cc(Nc2cc(F)cc(F)c2F)nc2c(C(=O)NC3CC3)cnn12` [I-5], the concentration for half-maximal inhibition (IC50) is over 50000 nM in experiment [1] (setting [4]) and under 100 nM in experiment [2].

`CNc1cc(Nc2cc(C)cc(F)c2)nc2c(C(=O)NC3CC3)cnn12` [I-6]: the IC50 in experiment [1] (setting [4]) is over 50000 nM; in experiment [2] it was under 100 nM.

As to `CNc1cc(Nc2cccc(N3CCCC3=O)n2)nc2c(C(=O)NC3CC3)cnn12` [I-7], the IC50 in experiment [1] (setting [4]) was over 12500 nM; in experiment [2], under 100 nM.

With `CNc1cc(Nc2cccc(C)c2Cl)nc2c(C(N)=O)cnn12` [I-14], the IC50 in experiment [1] (setting [4]) was over 50000 nM; in experiment [2], under 100 nM.

Regarding `CNc1cc(Nc2cccc(-c3nccs3)c2Cl)nc2c(C(N)=O)cnn12` [I-16], the IC50 in experiment [1] (setting [4]) was over 2500 nM; in experiment [2], under 100 nM.

Consider `CNc1cc(Nc2cccc(-c3cnn(C)c3)c2Cl)nc2c(C(N)=O)cnn12` [I-17], for which the concentration for half-maximal inhibition (IC50) in experiment [1] (setting [4]) is over 2500 nM; in experiment [2], under 100 nM.

For `CNc1cc(Nc2cc(C)cn(-c3cnn(C)c3)c2=O)nc2c(C(N)=O)cnn12` [I-31], the IC50 in experiment [1] (setting [4]) is over 300 nM; in experiment [2], 100 to 500 nM.

As to `CCn1cc(Cl)cc(Nc2cc(NC)n3ncc(C(N)=O)c3n2)c1=O` [I-35], the IC50 in experiment [1] (setting [4]) was over 300 nM; in experiment [2], under 100 nM.

Turning to `CNc1cc(-c2c[nH]c3c(C)cc(C)cc23)nc2c(C(N)=O)cnn12` [I-36, 5-(5,7-dimethyl-1H-indol-3-yl)-7-(methylamino)pyrazolo[1,5-a]pyrimidine-3-carboxamide], the IC50 in experiment [1] (setting [4]) is over 12500 nM; in experiment [2], under 100 nM.

For the molecule `CNc1cc(Nc2cccc(N3CCCC3=O)n2)nc2c(C(N)=O)cnn12` [I-47], the IC50 was over 300 nM in experiment [1] (setting [4]) and under 100 nM in experiment [2].

With `CNc1cc(Nc2cccnc2OC(C)C)nc2c(C(N)=O)cnn12` [I-72], the IC50 in experiment [1] (setting [4]) is over 12500 nM; in experiment [2], 100 to 500 nM.

As to `CNc1cc(Nc2cccc(N3CCCC3=O)n2)nc2c(C(=O)NC3CCC3)cnn12` [I-94], the IC50 in experiment [1] (setting [4]) is over 50000 nM; in experiment [2], under 100 nM.

`CNc1cc(Nc2cccn(-c3cnc(C(C)(C)O)cn3)c2=O)nc2c(C(=O)NC3CCC3)cnn12` [I-95]: the IC50 was over 50000 nM in experiment [1] (Homo sapiens, PBMC, 20 min, read-out: PBMC_GMCSF_pSTAT5 IC50) and under 100 nM in experiment [2].

`CNc1cc(Nc2cccc(N3CCOC3=O)n2)nc2c(C(=O)NC3CCC3)cnn12` [I-105]: the IC50 was over 12500 nM in experiment [1] (setting [4]) and under 100 nM in experiment [2].

As to `CNc1cc(Nc2cccnc2OC)nc2c(C(=O)N[C@H]3C[C@H]3F)cnn12` [I-110], the figures for the IC50 in experiment [1] (setting [4]) and in experiment [2] were over 50000 nM and under 100 nM, respectively.

Take `CNc1cc(Nc2cccn(-c3ccc(F)cn3)c2=O)nc2c(C(=O)N[C@H]3C[C@H]3F)cnn12` [I-115]: the IC50 is over 12500 nM in experiment [1] (setting [4]) and under 100 nM in experiment [2].

`CCOc1ccc(-n2cccc(Nc3cc(NC)n4ncc(C(=O)N[C@H]5C[C@H]5F)c4n3)c2=O)nn1` [I-117]: the figures for the IC50 in experiment [1] (setting [4]) and in experiment [2] were over 2500 nM and under 100 nM, respectively.

With `CNc1cc(Nc2cccn(-c3ccc(C(=O)N4CCCC4)cn3)c2=O)nc2c(C(=O)NC3CCC3)cnn12` [I-121], the IC50 in experiment [1] (setting [4]) was over 12500 nM; in experiment [2] it was 100 to 500 nM.

Take `CNc1cc(Nc2cccn(-c3cnc(C(=O)N(C)C)cn3)c2=O)nc2c(C(=O)NC3CCC3)cnn12` [I-122]: the IC50 in experiment [1] (setting [4]) is over 2500 nM; in experiment [2], under 100 nM.

Turning to `CNc1cc(Nc2cccn(-c3cccc(C(C)(C)O)n3)c2=O)nc2c(C(=O)N[C@H]3C[C@H]3F)cnn12` [I-123], the values for the IC50 in experiment [1] (setting [4]) and in experiment [2] were over 50000 nM and under 100 nM, respectively.

Turning to `CNc1cc(Nc2cccn(-c3cnc(C(=O)N(C)C)cn3)c2=O)nc2c(C(=O)N[C@H]3C[C@H]3F)cnn12` [I-126], the IC50 in experiment [1] (setting [4]) was over 50000 nM; in experiment [2], under 100 nM.

Regarding `CNc1cc(Nc2cccn(-c3cnc(C(=O)N(C)C)cn3)c2=O)nc2c(C(=O)NC3CC3)cnn12` [I-127, N-cyclopropyl-5-((1-(5-(dimethylcarbamoyl)pyrazin-2-yl)-2-oxo-1,2-dihydropyridin-3-yl)amino)-7-(methylamino)pyrazolo[1,5-a]pyrimidine-3-carboxamide], the half-inhibitory concentration (IC50) was over 12500 nM in experiment [1] (setting [4]) and under 100 nM in experiment [2].

In the case of `CNc1cc(Nc2cccn(-c3cccc(C)n3)c2=O)nc2c(C(=O)N[C@H]3C[C@H]3F)cnn12` [I-131], the IC50 in experiment [1] (setting [4]) was over 12500 nM; in experiment [2] it was under 100 nM.

In the case of `CNc1cc(Nc2cccn(-c3ccc(F)cc3)c2=O)nc2c(C(=O)N[C@H]3C[C@H]3F)cnn12` [I-132], the concentration for half-maximal inhibition (IC50) in experiment [1] (setting [4]) was over 2500 nM; in experiment [2], under 100 nM.

For the molecule `CCn1cc(Cl)cc(Nc2cc(NC)n3ncc(C(=O)NC4CC4)c3n2)c1=O` [I-133, 5-((5-chloro-1-ethyl-2-oxo-1,2-dihydropyridin-3-yl)amino)-N-cyclopropyl-7-(methylamino)pyrazolo[1,5-a]pyrimidine-3-carboxamide], the values for the IC50 in experiment [1] (setting [4]) and in experiment [2] were over 12500 nM and under 100 nM, respectively.

For `CNc1cc(Nc2cccn(-c3ccc(N4CCOCC4)cc3)c2=O)nc2c(C(=O)N[C@H]3C[C@H]3F)cnn12` [I-135], the IC50 in experiment [1] (setting [4]) is over 2500 nM; in experiment [2], under 100 nM.

`CNc1cc(Nc2cccn(-c3cc(C)n(C)n3)c2=O)nc2c(C(=O)NC3CCC3)cnn12` [I-136]: the figures for the IC50 in experiment [1] (setting [4]) and in experiment [2] were over 2500 nM and under 100 nM, respectively.

In the case of `CNc1cc(Nc2cccn(-c3cc(C)n(C)n3)c2=O)nc2c(C(=O)N[C@H]3C[C@H]3F)cnn12` [I-137], the values for the IC50 in experiment [1] (setting [4]) and in experiment [2] were over 50000 nM and under 100 nM, respectively.

For `CNc1cc(Nc2cccn(-c3cc(C)n(C)n3)c2=O)nc2c(C(=O)NC3CC3)cnn12` [I-138], the IC50 in experiment [1] (setting [4]) was over 50000 nM; in experiment [2], under 100 nM.

As to `CNc1cc(Nc2cccn(-c3ccn(C)n3)c2=O)nc2c(C(=O)NC3CCC3)cnn12` [I-139], the values for the IC50 in experiment [1] (setting [4]) and in experiment [2] were over 50000 nM and under 100 nM, respectively.

On to `CNc1cc(Nc2cccn(-c3ccc(C)nn3)c2=O)nc2c(C(=O)NC3CCC3)cnn12` [I-141], for which the figures for the IC50 in experiment [1] (setting [4]) and in experiment [2] were over 50000 nM and under 100 nM, respectively.

For the molecule `CNc1cc(Nc2cccnc2OC(C)C)nc2c(C(=O)NC3CCC3)cnn12` [I-145], the IC50 in experiment [1] (setting [4]) was over 50000 nM; in experiment [2], 100 to 500 nM.

For `CNc1cc(Nc2cccnc2OC(C)C)nc2c(C(=O)N[C@H]3C[C@H]3F)cnn12` [I-147], the IC50 in experiment [1] (setting [4]) is over 50000 nM; in experiment [2] it was under 100 nM.

Take `CNc1cc(Nc2cccnc2OC(F)F)nc2c(C(=O)NC3CCC3)cnn12` [I-151]: the IC50 in experiment [1] (setting [4]) was over 50000 nM; in experiment [2] it was under 100 nM.

For `CNc1cc(Nc2cccnc2OC(F)F)nc2c(C(=O)N[C@H]3C[C@H]3F)cnn12` [I-153], the IC50 in experiment [1] (setting [4]) was over 12500 nM; in experiment [2], under 100 nM.

As for `CNc1cc(Nc2cccnc2OC(F)F)nc2c(C(=O)NC3CC3)cnn12` [I-154], the IC50 in experiment [1] (setting [4]) was over 12500 nM; in experiment [2] it was under 100 nM.

The IC50 is the concentration at which inhibition is half-maximal.
